Experimental data from patent US20240116877A1, “KIT KINASE INHIBITORS AND METHODS OF USE THEREOF” (Deciphera Pharmaceuticals, LLC, priority 2021, published 2024).
Where two headings read alike, the source gives them in different places.

Legend:
c-KIT kinase (uKIT) = c-KIT kinase (uKIT) (Homo sapiens (Human), UniProt P10721); experiment: Biochemical Assay for uKIT (coupled pyruvate kinase/lactate dehydrogenase assay); conditions: Inhibition of biochemical activity of uKIT kinase; 1 mM ATP
In short: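 Continuous coupled PK/LDH assay following NADH oxidation at 340 nm for 6 h at 30° C, with 16 nM or 4.36 nM KIT (two constructs), 0.7 mg/mL PE4Y, 1 mM ATP, pH 7.5. Rates from the 2-3 h window converted to percent inhibition versus controls; IC50 fitted.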

Ba/F3 KIT mutant cells = experiment: Ba/F3 mutant KIT Cell Proliferation Assays (resazurin); type: cell-based; conditions: Mus musculus, BaF3
In short: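 IC50 values come from resazurin fluorescence (ex 540, em 600) after 5 h dye exposure, added as a 440 μM solution. Cells were IL-3-independent Ba/F3 expressing mutant KIT from a lentiviral vector, puromycin-selected.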

GIST 430 cells = experiment: GIST 430 Cell Proliferation Assay (resazurin); type: cell-based; conditions: Homo sapiens; GIST430 cell proliferation
Method: GIST 430 Cell Proliferation Assay
A serial dilution of test compound was dispensed into a 96-well black clear bottom plate (Corning, Corning, NY). Five thousand cells were added per well in 200 μL complete growth medium. Plates were incubated for 115 h at 37 degrees Celsius, 5% CO2, 95% humidity. At the end of the incubation period 40 μL of a 440 μM solution of resazurin (Sigma, St. Louis, MO) in PBS was added to each well and incubated for an additional 5 h at 37 degrees Celsius, 5% CO2, 95% humidity. Plates were read on a Synergy2 reader (Biotek, Winooski, VT) using an excitation of 540 nm and an emission of 600 nm. Data was analyzed using Prism software (Graphpad, San Diego, CA) to calculate IC50 values.

[1] = Ba/F3 KIT AYdup mutant cell proliferation, read-out: AYdup IC50
[2] = Ba/F3 KIT AYdup-D816G mutant cell proliferation, read-out: AYdup-D816G IC50
[3] = Ba/F3 KIT AYdup-V654A mutant cell proliferation, read-out: AYdup-V654A IC50
[4] = Ba/F3 KIT exon11del-V654A mutant cell proliferation, read-out: exon11del-V654A IC50
[5] = Ba/F3 KIT exon11del-Y823D mutant cell proliferation, read-out: exon11del-Y823D IC50

Sequence of c-KIT kinase (uKIT) (P10721 other isoform, or with tags, fused parts or gaps): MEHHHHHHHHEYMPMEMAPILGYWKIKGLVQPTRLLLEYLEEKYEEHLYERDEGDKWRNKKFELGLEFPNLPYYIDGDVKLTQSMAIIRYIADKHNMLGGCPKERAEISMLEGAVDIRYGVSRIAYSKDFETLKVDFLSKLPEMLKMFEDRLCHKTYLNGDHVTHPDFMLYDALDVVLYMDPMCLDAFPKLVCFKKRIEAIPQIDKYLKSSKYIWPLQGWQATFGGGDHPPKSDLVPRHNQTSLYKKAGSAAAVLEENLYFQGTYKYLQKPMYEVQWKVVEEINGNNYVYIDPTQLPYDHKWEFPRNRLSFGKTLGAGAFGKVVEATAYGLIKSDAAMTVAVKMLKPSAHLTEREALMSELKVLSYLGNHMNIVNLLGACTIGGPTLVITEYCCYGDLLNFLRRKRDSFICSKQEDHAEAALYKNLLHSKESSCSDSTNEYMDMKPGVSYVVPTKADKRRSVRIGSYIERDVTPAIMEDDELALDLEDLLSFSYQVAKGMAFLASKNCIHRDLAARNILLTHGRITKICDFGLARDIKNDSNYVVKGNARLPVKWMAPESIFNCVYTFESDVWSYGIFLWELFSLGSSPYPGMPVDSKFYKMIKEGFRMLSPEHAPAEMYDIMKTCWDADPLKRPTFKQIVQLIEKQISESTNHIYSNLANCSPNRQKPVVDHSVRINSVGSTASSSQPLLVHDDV

| SMILES | IC50 (c-KIT kinase (uKIT)) [nM] | IC50 (Ba/F3 KIT mutant cells; [1]) [nM] | IC50 (Ba/F3 KIT mutant cells; [2]) [nM] | IC50 (Ba/F3 KIT mutant cells; [3]) [nM] | IC50 (Ba/F3 KIT mutant cells; [4]) [nM] | IC50 (Ba/F3 KIT mutant cells; [5]) [nM] | IC50 (GIST 430 cells) [nM] |
| --- | --- | --- | --- | --- | --- | --- | --- |
| COCCOc1cc(F)c2c(Nc3ccc(NC(=O)NCCOC(F)(F)F)cc3)ncnc2c1 [Example 42] | ≤ 10 | ≤ 10 | 10 to 100 | 10 to 100 | 10 to 100 | 10 to 100 | 10 to 100 |
| COCCOc1cc(F)c2c(Nc3ccc(NC(=O)C4(C(=O)NCC(C)(C)C)CC4)cc3)ncnc2c1 [Example 44] | 10 to 100 | 10 to 100 | 100 to 1000 | 100 to 1000 | 100 to 1000 | 100 to 1000 | 100 to 1000 |
| COCCOc1cc(F)c2c(Nc3ccc(NC(=O)CCCC(C)(C)F)cc3)ncnc2c1 [Example 45] | ≤ 10 | ≤ 10 | 10 to 100 | 10 to 100 | 10 to 100 | 100 to 1000 | ≤ 10 |
| COCCOc1cc(F)c2c(Nc3ccc(NC(=O)OCCC(C)(C)C#N)cc3)ncnc2c1 [Example 46] | ≤ 10 | ≤ 10 | 10 to 100 | 100 to 1000 | 10 to 100 | 100 to 1000 | 10 to 100 |
| COCCOc1cc(F)c2c(Nc3ccc(NC(=O)COCCC(C)C)cc3)ncnc2c1 [Example 47] | ≤ 10 | ≤ 10 | 10 to 100 | 10 to 100 | 10 to 100 | 10 to 100 | ≤ 10 |
| COCCOc1cc(F)c2c(Nc3ccc(NC(=O)COCC(F)(F)F)cc3)ncnc2c1 [Example 48] | 100 to 1000 | 10 to 100 | 100 to 1000 | 100 to 1000 | 100 to 1000 | 100 to 1000 | 100 to 1000 |
| COCCOc1cc(F)c2c(Nc3ccc(NC(=O)COCC(C)C)cc3)ncnc2c1 [Example 49] | ≤ 10 | ≤ 10 | 10 to 100 | 100 to 1000 | 10 to 100 | 100 to 1000 | 10 to 100 |
| COCCOc1cc(F)c2c(Nc3ccc(NC(=O)C4(C(=O)N(C)CC(C)(C)C)CC4)cc3)ncnc2c1 [Example 50] | 100 to 1000 | 100 to 1000 | > 1000 | 100 to 1000 | > 1000 | > 1000 | 100 to 1000 |
| COCCOc1cc(F)c2c(Nc3ccc(NC(=O)CC(=O)N(C)CC(C)(C)C)cc3)ncnc2c1 [Example 51] | 10 to 100 | 10 to 100 | 10 to 100 | 10 to 100 | 10 to 100 | 10 to 100 | ≤ 10 |
| COCCOc1cc(F)c2c(Nc3ccc(NC(=O)OCCC(C)(C)F)cc3)ncnc2c1 [Example 52] | 10 to 100 | ≤ 10 | 10 to 100 | 100 to 1000 | 10 to 100 | 100 to 1000 | 10 to 100 |
| COCCOc1cc(F)c2c(Nc3ccc(NC(=O)CCN4CCCC4=O)cc3)ncnc2c1 [Example 53] | > 1000 | 100 to 1000 | > 1000 | > 1000 | > 1000 | – | 100 to 1000 |
| COCCOc1cc(F)c2c(Nc3ccc(NC(=O)NCCN4CCCC4=O)cc3)ncnc2c1 [Example 54] | 10 to 100 | 10 to 100 | 100 to 1000 | 100 to 1000 | 100 to 1000 | 100 to 1000 | 10 to 100 |
| COCCOc1cc(F)c2c(Nc3ccc(NC(=O)C(C)NC(=O)CC(C)C)cc3)ncnc2c1 (stereo not shown) [Example 55] | 100 to 1000 | – | – | 100 to 1000 | 10 to 100 | 100 to 1000 | 100 to 1000 |
| COCCOc1cc(F)c2c(Nc3ccc(NC(=O)COCC4CCCC4)cc3)ncnc2c1 [Example 56] | ≤ 10 | – | – | 10 to 100 | 10 to 100 | 10 to 100 | ≤ 10 |
| COCCOc1cc(F)c2c(Nc3ccc(NC(=O)COCC4CC4)cc3)ncnc2c1 [Example 57] | 100 to 1000 | – | – | 100 to 1000 | 10 to 100 | > 1000 | 10 to 100 |
| COCCOc1cc(F)c2c(Nc3ccc(NC(=O)COCC4CCCO4)cc3)ncnc2c1 (stereo not shown) [Example 58] | 10 to 100 | – | – | 100 to 1000 | 100 to 1000 | > 1000 | 10 to 100 |
| COCCOc1cc(F)c2c(Nc3ccc(NC(=O)COCC4CCOC4)cc3)ncnc2c1 (stereo not shown) [Example 59] | 10 to 100 | – | – | 100 to 1000 | 10 to 100 | > 1000 | 10 to 100 |
| COCCOc1cc(F)c2c(Nc3ccc(NC(=O)C(F)(F)C(=O)NCC(C)(C)C)cc3)ncnc2c1 [Example 60] | 10 to 100 | – | – | 10 to 100 | 10 to 100 | 100 to 1000 | 10 to 100 |
| COCCOc1cc(F)c2c(Nc3ccc(NC(=O)NCCC4CCOCC4)cc3)ncnc2c1 [Example 61] | 10 to 100 | ≤ 10 | ≤ 10 | 10 to 100 | ≤ 10 | 10 to 100 | ≤ 10 |
| COCCOc1cc(F)c2c(Nc3ccc(NC(=O)CCC4CCN(C)CC4)cc3)ncnc2c1 [Example 62] | > 1000 | – | – | 100 to 1000 | 100 to 1000 | – | > 1000 |
| COCCOc1cc(F)c2c(Nc3ccc(NC(=O)CCC4CCOCC4)cc3)ncnc2c1 [Example 63] | 10 to 100 | – | – | 100 to 1000 | 10 to 100 | > 1000 | 10 to 100 |
| COCCOc1cc(F)c2c(Nc3ccc(NC(=O)NCCC(C)(C)F)c(F)c3)ncnc2c1 [Example 64] | 10 to 100 | – | – | 100 to 1000 | 10 to 100 | 100 to 1000 | 10 to 100 |
| COCCOc1cc(F)c2c(Nc3ccc(NC(=O)NCCC(C)(C)F)cc3F)ncnc2c1 [Example 65] | ≤ 10 | – | – | 10 to 100 | ≤ 10 | 100 to 1000 | 10 to 100 |
| COCCOc1cc(F)c2c(Nc3ccc(NC(=O)CN(C)C(=O)C(C)C)cc3)ncnc2c1 [Example 66] | 10 to 100 | – | – | 10 to 100 | 10 to 100 | > 1000 | 10 to 100 |
| COCCOc1cc(F)c2c(Nc3ccc(NC(=O)CCC(=O)N(C)C(C)C)cc3)ncnc2c1 [Example 67] | 10 to 100 | – | – | 100 to 1000 | 10 to 100 | 10 to 100 | 100 to 1000 |
| CN(C)CCOc1cc(F)c2c(Nc3ccc(NC(=O)NCCC(C)(C)F)cc3)ncnc2c1 [Example 68] | ≤ 10 | – | – | 10 to 100 | ≤ 10 | 100 to 1000 | ≤ 10 |
